According to patent US20100239635A1, “DRUG DELIVERY MEDICAL DEVICE” (MICELL TECHNOLOGIES, INC., priority 2009, published 2010):

Key:
bladder cancer = conditions: optimized schedule: 40 mg/20 cc (compared with 20 mg/20 cc), overnight dehydration, complete bladder emptying, alkalinization with sodium bicarbonate; cited from earlier work
[1] = cited from earlier work
[2] = In vivo study of coating and drug transfer from a stent, porcine coronary artery model; set-up: species or system Yucatan pig; conditions: for amount of drug detected in the arterial tissue: stent as in Example 1
Experimental: Another sample of the coated stent was prepared for in vivo evaluation in a porcine coronary artery model using the Yucatan pig. Subjects were initially given 650 mg acetylsalicylic acid and 300 mg Plavix. Maintenance doses of 81 mg acetylsalicylic acid and 75 mg Plavix were administered. The target ACT (activated clotting time) for the procedure was about 250 seconds. Stent oversizing in relation to the artery was about 10-20%. The preparation of the sirolimus-coated stent was the same as described in Example 1 and used for the in vitro deployment into tubing, except that the device was sterilized using ETO prior to implantation into the animal.
The bulk concentration of drug was measured in the arterial tissue surrounding the implanted stent at 1, 3, 7, 14, and 28 days after implant, and provided a quantitative measure of the high efficiency of transfer of drug into the therapeutic site using devices and methods of the invention. The amount of drug that was detected in the arterial tissue was as follows: 1 day after implant, ˜6 μg; 3 days after implant, ˜16 μg; 7 days after implant, ˜30 μg; 14 days after implant, ˜30 μg; 28 days after implant, ˜13 μg. Peak tissue concentration of sirolimus of ˜30 μg at 14 days after implant was representative of approximately ⅙^th of the total drug that had been loaded on the stent. Note that some drug likely metabolized or diffused out of the arterial tissue into other areas of the body.

[3] = given intravesically in doses as high as 1 billion units; cited from earlier work
[4] = set-up: dose or concentration left out as unconfirmed; conditions: estradiol release, as its 3-acetate ester; cited from earlier work

Molecule: CO[C@@]12[C@H](COC(N)=O)C3=C(C(=O)C(C)=C(N)C3=O)N1C[C@@H]1N[C@@H]12 [Mitomycin C, mitomycin C]
- recurrence (bladder cancer): nearly cut in half
- stability in acid urine [1]: inactivated

Molecule: CO[C@H]1C[C@@H]2CC[C@@H](C)[C@@](O)(O2)C(=O)C(=O)N2CCCC[C@H]2C(=O)O[C@H]([C@H](C)C[C@@H]2CC[C@@H](O)[C@H](OC)C2)CC(=O)[C@H](C)/C=C(\C)[C@@H](O)[C@@H](OC)C(=O)[C@H](C)C[C@H](C)/C=C/C=C/C=C/1C [sirolimus]
- amount of drug detected in the arterial tissue ([2]; 1 day after implant): ~6 µg
- amount of drug detected in the arterial tissue ([2]; 3 days after implant): ~16 µg
- amount of drug detected in the arterial tissue ([2]; 7 days after implant): ~30 µg
- amount of drug detected in the arterial tissue ([2]; 14 days after implant): ~30 µg
- amount of drug detected in the arterial tissue ([2]; 28 days after implant): ~13 µg
- Peak tissue concentration of sirolimus ([2]; at 14 days after implant): ~30 µg
- peak tissue amount as fraction of the total drug loaded on the stent ([2]; at 14 days after implant): approximately ⅙

Molecule: Interferon Alpha 2b
- dose-limiting side effects [3]: without dose-limiting side effects

Molecule: C[C@]12CC[C@@H]3c4ccc(O)cc4CC[C@H]3[C@@H]1CC[C@@H]2O [estradiol]
- circulating plasma concentration of the drug [4]: 300 pmol/L
